Five compounds from patent publication EP0104300A1, “Diazolyl alkanoles, process for their preparation and their use as antimycotic agents” (BAYER AG, priority 1982, dated 1984) can be followed below.

The subject of this assay is Candida-Zellen. The assay can be described thus: Antimycotic in-vivo efficacy (oral) in mouse candidosis. The arrangement: species or system Mäuse vom Typ SPF-CF1; key: +++++: sehr gute Wirkung = 90 % Ueberlebende am 6.Tag p.i.; ++++: gute Wirkung = 80 % Ueberlebende am 6 Tag p.i.; +++: Wirkung = 60 % Ueberlebende am 6. Tag p.i.; ++: schwache Wirkung = 40 % Ueberlebende am 6.Tag p.i.; +: Spur Wirkung =; k.W.: keine Wirkung. Conditions: mice infected i.v. with 1 - 2 x 10^6 Candida cells; oral treatment with 50 - 100 mg/kg each, 1 h before and 7 h after infection; survivors on day 6 p.i. The protocol:
Antimykotische in-vivo-Wirksamkeit (oral) bei Mäusecandidose Versuchsbeschreibun:
Mäuse vom Typ SPF-CF1 wurden intravenös mit 1 - 2 x 10^6 logarithmisch wachsenden Candida-Zellen, die in physiologischer Kochsalzlösung suspendiert werden, infiziert. Eine Stunde vor und sieben Stunden nach der Infektion werden die Tiere mit jeweils 50 - 100 mg/kg Körpergewicht der Präparate oral behandelt.
Unbehandelte Tiere starben 3 bis 6 Tage post infektionem. Die Ueberlebensrate am 6.Tag post infektionem betrug bei unbehandelten Kontrolltieren etwa 5 %. In diesem Test zeigten z.B. die erfindungsgemäßen Verbindungen eine bessere Wirkung als die aus dem Stand der Technik bekannten Verbindungen 1 und 3.
+++++ = sehr gute Wirkung = 90 % Ueberlebende am 6.Tag p.i. ++++ = gute Wirkung = 80 % Ueberlebende am 6 Tag p.i. +++ = Wirkung = 60 % Ueberlebende am 6. Tag p.i. ++ = schwache Wirkung = 40 % Ueberlebende am 6.Tag p.i. + = Spur Wirkung = k.W. = keine Wirkung
On to `OC(Cc1ccc(Cl)cc1Cl)(Cn1ccnc1)c1ccc(-c2ccccc2)cc1` (centres unmarked) [(A), 2-(4-Biphenylyl)-1-(2,4-dichlorphenyl)-3-(imidazoL-1-yL)-2-propanoL], for which the Wirkung entry is reported as “k.W”. `CC(C)(C)C(O)(COc1ccc(Cl)cc1)Cn1ccnc1` (centres unmarked) [(B), 2-(4-Chlorphenoxymethyl)-3,3-dimethyl-1-(imidazol-1-yl)-butan-2-ol]: the Wirkung entry was “k.W”. The result for `Cc1ccccc1OCC(O)(Cn1ccnc1)C(C)(C)C` (centres unmarked) [(C)] reads “k.W”; that for `OC(C#Cc1ccccc1)(Cn1cncn1)Cn1cncn1` [Beispiel 1, 3-Hydroxy-1-phenyL-4-(1,2,4-triazol-1-yl)-3-(1,2,4-triazol-1-yl-methyl)-1-butin], “+++ (Wirkung = 60 % Ueberlebende am 6. Tag p.i.)”; that for `OC(C#Cc1ccc(Cl)cc1)(Cn1cncn1)Cn1cncn1` [Beispiel 3], “+++++ (sehr gute Wirkung = 90 % Ueberlebende am 6.Tag p.i.)”.
